From US20040259936A1, “Treatment of neoplasia” (priority 2001, published 2004)

How the values were obtained:
Molt-4 [1] = experiment: Cannabinoid-induced apoptosis in vitro (TUNEL); assay type: cell-based, human; design: induction of apoptosis (TUNEL): dose or concentration left out as unconfirmed
Description: (§1) The cells were washed twice with PBS. […] Five thousand cells were analyzed per sample.

EL-4 tumor cells [2] = experiment: Cannabinoid-induced apoptosis in vitro (TUNEL or annexin V/PI); assay type: cell-based, murine; settings: for induction of apoptosis (annexin/PI) compared with controls: 3 μM
Description: as §1

[3] = cited from earlier work
Molt-4 [4] = experiment: Tumor-cell viability in vitro, trypan blue dye exclusion; assay type: cell-based, human; settings: Molt-4, serum-free medium, 24 hours
Description: (§2) Measurement of the effect of cannabinoid receptor aponistson tumor-cell viability in vitro: Tumor cells were adjusted to 1×10^6 cells/mL in medium containing 5% FCS or serum-free medium. The cells (1×10^6) were cultured in 24-well plates in 2 mL medium in the presence or absence of various concentrations of cannabinoid receptor agonists for 2 to 24 hours. Finally, the cells were harvested and washed twice in PBS, and the viable cell count was determined by trypan blue dye exclusion.

Jurkat [5] = experiment: as above; assay type: cell-based, human
Description: as §2

Jurkat [6] = experiment: Cannabinoid-induced apoptosis in vitro (TUNEL); assay type: cell-based, human; settings: 5 μM JWH-015, serum-free medium, 24 hours
Description: as §1

CB2 receptors = CB2 receptors (Homo sapiens, UniProt P34972); settings: human tumor cells, pretreatment with the CB2 antagonist
Sequence of CB2 receptors (P34972 whole entry): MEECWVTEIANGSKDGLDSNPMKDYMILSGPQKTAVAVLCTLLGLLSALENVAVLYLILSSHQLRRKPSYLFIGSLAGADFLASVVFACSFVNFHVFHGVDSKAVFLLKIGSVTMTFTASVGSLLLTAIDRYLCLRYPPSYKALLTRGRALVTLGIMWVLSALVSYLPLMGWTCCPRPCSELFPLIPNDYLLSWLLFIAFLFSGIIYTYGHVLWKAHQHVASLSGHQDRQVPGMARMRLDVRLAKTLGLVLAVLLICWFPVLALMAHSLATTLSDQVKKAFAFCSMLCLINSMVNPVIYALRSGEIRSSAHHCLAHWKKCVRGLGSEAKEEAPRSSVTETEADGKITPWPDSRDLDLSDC
Description: Next, the cells were harvested, washed twice in PBS, and analyzed for the induction of apoptosis using either the terminal deoxynucleotidyl transferase-mediated end labeling (TUNEL) method or annexin V/propidium iodide (PI) method, as described elsewhere (references 14,15 incorporated herein by reference). To detect apoptosis using the TUNEL method, we washed the cells twice with PBS and fixed them with 4% p-formaldehyde for 30 minutes at room temperature. The cells were next washed with PBS, permeabilized on ice for 2 minutes, and incubated with fluorescein isothiocyanate-dUTP and TdT (Boehringer Mannheim, Indianapolis, Ind.) for 1 hour at 37° C. and 5% CO2. To detect apoptosis using the annexin V/PI method, we washed the cells twice with PBS and stained them with annexin V and PI for 20 minutes at room temperature. The cells were washed twice with PBS. The levels of apoptosis in both the TUNEL and annexin/PI assays were determined by measuring the fluorescence of the cells by flow cytometric analysis. Five thousand cells were analyzed per sample.

EL-4 tumor cells [7] = experiment: Tumor-cell viability and induction of apoptosis in vivo in EL-4 tumor-bearing mice; design: species or system C57BL/6 mice
Description: Measurement of tumor-cell viability and induction of apoptosis in vivo: Groups of 5 C57BL/6 mice were injected intraperitoneally (IP) with 1×10^6 EL-4 tumor cells suspended in 0.2 mL PBS. The control mice received PBS alone. Ten days later, the mice were injected with various concentrations of THC (0, 1, 3, or 5 mg/kg […]). The mice were killed 24 hours later and the EL-4 tumor cells were harvested from the peritoneal cavity by injecting 5.0 mL PBS, followed by aspiration of the peritoneal fluid from the cavity. The contaminating red blood cells were removed with red blood lysing solution (Sigma), and the tumor cells were washed twice with PBS. The number of viable cells was determined by trypan blue dye exclusion, and apoptosis was determined using the TUNEL assay. The presence of tumor cells in the peritoneal cavity was confirmed by the ability of the cells to grow in vitro and by the phenotype (Thyl-, CD4-, CD8-).

tumor cells = experiment: Dose of THC that induced apoptosis in vitro, with and without serum; assay type: cell-based
Description: as §1

primary ALL cells = experiment: Viability of primary ALL cells in vitro, trypan blue dye exclusion; assay type: cell-based, human; settings: ALL no. 1 and ALL no. 2, serum-free medium, 2 hours
Description: Primary leukemic cells: Peripheral blood samples were obtained from 2 patients diagnosed with ALL. The samples were referred to as ALL no. 1 and ALL no. 2. ALL no. 1 was obtained from a patient newly diagnosed with common acute lymphoblastic leukemia antigen (CALLA) (CD10)-positive non-B, non-T ALL. ALL no. 2 was obtained from a patient newly diagnosed with terminal deoxynucleotidyl transferase (TdT)-positive T-cell ALL. Informed consent was obtained following institutional guidelines and approval was obtained from the institutional review board of Virginia Commonwealth University. Consent was provided according to the Declaration of Helsinki.
The content of the lymphoblasts was greater than 70% as determined by flow cytometric analysis. Mononuclear cells were isolated by Ficoll-Paque density gradient centrifugation. In this study, the samples were cryopreserved and stored in liquid nitrogen before use. Viability after thawing was determined by trypan blue dye exclusion and was greater than 90%.
Measurement of the effect of cannabinoid receptor aponistson tumor-cell viability in vitro: Tumor cells were adjusted to 1×10^6 cells/mL in medium containing 5% FCS or serum-free medium. […] Finally, the cells were harvested and washed twice in PBS, and the viable cell count was determined by trypan blue dye exclusion.

Sup-T1 = experiment: Tumor-cell viability in vitro, trypan blue dye exclusion; assay type: cell-based, human; settings: Sup-T1, 5 μM THC, 4 hours
Description: as §2

LSA tumor cells [8] = experiment: as above; assay type: cell-based, murine; settings: medium with 5% FCS, 24 hours
Description: as §2

P815 tumor cells [9] = experiment: as above; assay type: cell-based, murine; settings: P815, medium with 5% FCS, 24 hours
Description: as §2

LSA tumor cells [10] = experiment: Cannabinoid-induced apoptosis in vitro (TUNEL); assay type: cell-based, murine; settings: 5% FCS, 24 hours, 20 μM THC (printed 201M)
Description: as §1

P815 tumor cells [11] = experiment: Cannabinoid-induced apoptosis in vitro (TUNEL); assay type: cell-based, murine; settings: P815, 5% FCS, 24 hours, 20 μM THC (printed 201M)
Description: as §1

[12] = rats injected with 50 mg/kg, within 10 hours of administration; cited from earlier work
EL-4 tumor cells [13] = experiment: Survival of EL-4-challenged mice; assay type: in vivo, C57BL/6 mice; settings: 5 mg/kg IP daily for 14 days
Description: Effect of THC on survival of EL-4-challenged mice: Groups of 8 C57BL/6 mice were injected […] with 1×10^6 EL-4 tumor cells in a volume of 100 μL PBS. One day following tumor injection, the mice received daily IP injections for 14 days with 5 mg/kg THC in a volume of 500 μL PBS. Control mice received injections with the vehicle control. The mice were observed daily for signs of morbidity and were euthanized. Mice that survived for more than 60 days were rechallenged with live EL-4 cells (1×10^6) and tested for their ability to reject tumor and survive.

EL-4 tumor cells [14] = experiment: Tumor-cell viability in vitro, trypan blue dye exclusion; assay type: cell-based, murine; design: time required to induce tumor-cell killing: dose or concentration left out as unconfirmed
Description: as §2

thymus and spleen = experiment: Cellularity of thymus and spleen after administration to C57BL/6 mice; settings: resulted from apoptosis in immune cells
[15] = EL-4, serum-free medium, 5 μM, 4 hours
[16] = EL-4, serum-free medium, 4 hours
[17] = 5 mg/kg IP on day 10, harvest 24 hours later

For `CCCCC/C=C\C/C=C\C/C=C\C/C=C\CCCC(=O)NCCO` [anandamide], the “concentration leading to significant levels of apoptosis (TUNEL)” value (Molt-4 [1]; Molt-4, serum-free medium, 4 hours) was at least 20 µM, the “induction of apoptosis (TUNEL)” value (EL-4 tumor cells [2]; [15]) was “slight increase in apoptosis” and the “induction of apoptosis (TUNEL)” value (EL-4 tumor cells [2]; EL-4, serum-free medium, 10 μM, 4 hours) was “significant levels of apoptosis”.

In the case of `CCCn1c(C)c(C(=O)c2cccc3ccccc23)c2ccccc21` [JWH-015, (2-Methyl-1-propyl-1H-indol-3-yl)-1-naphthalenylmethanone], the “induction of apoptosis (TUNEL)” value (Molt-4 [1]; Molt-4, JWH-015, serum-free medium, 24 hours) is given as “significant induction of apoptosis”, the “soluble to, in DMSO” value ([3]; DMSO) is given as 10 mM and the “soluble to, in ethanol” value ([3]; ethanol) is given as 25 mM. The “concentration leading to a significant decrease in the number of viable tumor cells” value (Molt-4 [4]) was at least 5 µM, the “concentration leading to a significant decrease in the number of viable tumor cells” value (Jurkat [5]; serum-free medium, 24 hours) was at least 5 µM and the “induction of apoptosis (TUNEL)” value (Jurkat [6]) was “significant induction of apoptosis”.

With SR144528 the “effect of pretreatment on THC-induced apoptosis” value (CB2 receptors) was “partially reversed”.

For `Cc1c(C(=O)c2cccc3ccccc23)c2cccc3c2n1[C@H](CN1CCOCC1)CO3` [WIN55212], the “induction of apoptosis (annexin/PI) compared with controls” value (from here on “induction … compared with controls”) (EL-4 tumor cells [2]; [16]) was “no significant effect”.

With `CCCCCCC(C)(C)c1cc(O)c2c(c1)OC(C)(C)[C@@H]1CC=C(CO)C[C@@H]21` [HU-210] the “induction … compared with controls” value (EL-4 tumor cells [2]; [16]) was “significant increase in apoptosis”.

For `CCCCCc1cc(O)c2c(c1)OC(C)(C)[C@@H]1CCC(C)=C[C@@H]21` [THC, Delta-9-tetrahydrocannabinol], the “viable tumor-cell number in the peritoneal cavity” value (shortened to “viable tumor-cell number”) (EL-4 tumor cells [7]; 1 mg/kg IP on day 10, harvest 24 hours later) was “failed to cause a decrease in cellularity”, the “viable tumor-cell number” value (EL-4 tumor cells [7]; 3 mg/kg IP on day 10, harvest 24 hours later) was “effective” and the “proportion of tumor cells showing apoptosis (TUNEL)” value (EL-4 tumor cells [7]; [17]) was 77.3%. For the same molecule, the “viable tumor-cell number” value (EL-4 tumor cells [7]; [17]) was “effective”, the “dose that induced apoptosis in vitro” value (tumor cells; serum-containing medium) was at least 10 µM and the “dose that induced apoptosis in vitro” value (tumor cells; serum-free medium) was at least 3 µM. The “concentration resulting in significant reduction in viability” value (primary ALL cells) was at least 5 µM, the “number of viable tumor cells” value (Jurkat [5]; 5 μM THC, 4 hours) was “dramatic reduction in the number of viable tumor cells” and the “number of viable tumor cells” value (Sup-T1) was “dramatic reduction in the number of viable tumor cells”. For the same molecule, the “concentration leading to a significant reduction in the number of viable cells” value (LSA tumor cells [8]) was at least 10 µM, the “concentration leading to a significant reduction in the number of viable cells” value (P815 tumor cells [9]) was at least 10 µM and the “induction of apoptosis (TUNEL)” value (LSA tumor cells [10]) was “induced significant apoptosis”. For the same molecule, the “induction of apoptosis (TUNEL)” value (P815 tumor cells [11]) was “induced significant apoptosis”, the “THC in the serum” value [12] was 10 µM and the “induction of apoptosis (TUNEL)” value (EL-4 tumor cells [2]; EL-4, 5% FCS, 24 hours, 20 μM THC (printed 201M)) was “induced significant apoptosis”. For the same molecule, the “induction … compared with controls” value (EL-4 tumor cells [2]; [16]) was “significant increase in apoptosis”, the “induction of apoptosis (TUNEL and annexin/PI)” value (EL-4 tumor cells [2]; [15]) was “increase in the induction of apoptosis” and the “survival of EL-4 tumor-bearing mice” value (EL-4 tumor cells [13]) was “significant increase in survival”. The “mice that survived the tumor challenge / were cured” value (EL-4 tumor cells [13]; listed as TEC) was “approximately 25%”, the “concentration leading to a significant reduction in the number of viable cells” value (EL-4 tumor cells [14]; EL-4, medium with 5% FCS, 24 hours) was at least 10 µM and the “time required to induce tumor-cell killing” value (EL-4 tumor cells [14]; EL-4, serum-free medium) was 4 h. The “concentration leading to a significant decrease in tumor-cell viability” value (EL-4 tumor cells [14]; [16]) was 5 µM, the “concentration causing a significant decrease in tumor-cell viability” value (EL-4 tumor cells [14]; EL-4, serum-free medium, 12 hours) was 3 µM and the “cellularity of the thymus and spleen” value (thymus and spleen) was “marked decrease in the cellularity of the thymus and spleen”.
